Patent publication US9284271B2, “Compounds for the treatment of neurodegenerative diseases” (Katholieke Universiteit Leuven, K.U. Leuven R&D, priority 2010, dated 2016)

What follows are molecules tested on M17-TAU P301L cells (assay: Tau-induced toxicity experiment: LDH leakage of retinoic acid incubated M17-TAU P301L cells). Settings: Homo sapiens, Neuroblastoma cell, 168 h; reduction of LDH activity of retinoic acid incubated M17-TAU P301L neuroblastoma cells; 7 days incubation; Promega Cytotox 96 assay.
Assay type: cell-based
Source text: A TAU expression plasmid was constructed by sub-cloning the cDNA of human TAU-P301L (encoding for TAU with proline 301 substituted by a leucine residue) into mammalian expression vector pcDNA3.1 resulting in plasmid pcDNA3.1-TAU P301L. Plasmids pcDNA3.1 and pcDNA3.1-TAU P301L were transfected to human neuroblastoma cells ([…]; ATCC No. CRL-2267) and independent clonal lines with the plasmids stably integrated into the genome were selected. […] Expression of the TAU P301L genes in the cell lines was confirmed by Western analysis.
In degenerated or dead cells lactate dehydrogenase (LDH) is leaked out of the cells into the extracellular environment due to a loss of plasma-membrane integrity. This principle was used to determine cytotoxicity by quantifying the level of leaked LDH into the growth medium.
The detailed method for determining TAU cytotoxicity was as follows: From appropriate precultures of M17-3.1 and M17-TAU(P301L) cells were seeded at 2500 cells/cm2 in Optimem Reduced Serum without phenol red (Gibco, Cat. 31985-047) supplemented with 1% fetal calf serum, 1 mM sodium pyruvate, 1× non-essential amino acids, 500 μg/ml G418 0.5× antibiotic/antimycotic. After 3 h of incubation at 37° C./5% CO2 1 volume of Optimem Reduced Serum (same as described above; except without fetal calf serum) supplemented with 2.5 μM retinoic acid (RA) was added. The cells were further incubated for 7 days. Subsequently, LDH activity was determined using Promega Cytotox 96 Non-Radioactive cytotoxicity assay, (Cat. G1780) according the supplier's instructions.
The M17-TAU P301L cell line made it possible to assess the ability of novel compounds to counteract TAU cytotoxicity. […] These measurements were used to calculate EC50 values of table 2.
Exemplary compounds of the present invention are shown in table 2, with their chemical name and their EC50 value (expressed in nM) as determined from example 75 in the Tau-induced toxicity experiment.

| Compound | EC50 [nM] |
| --- | --- |
| O=C(NCCc1c[nH]c2ccc(Cl)cc12)c1ccc(-c2ccccc2)cc1 [Cpd002, N-(2-(5-chloro-1H-indol-3-yl)ethyl)biphenyl-4-carboxamide] | 130 |
| O=C(NCCc1c[nH]c2ccc(F)cc12)c1ccc(-c2ccccc2)cc1 [Cpd003, N-(2-(5-fluoro-1H-indol-3-yl)ethyl)biphenyl-4-carboxamide] | 448 |
| Cc1ccc2[nH]cc(CCNC(=O)c3ccc(-c4ccccc4)cc3)c2c1 [Cpd004, N-(2-(5-methyl-1H-indol-3-yl)ethyl)biphenyl-4-carboxamide] | 238 |
| CCOC(=O)c1cnn(-c2ccc(C(=O)NCCc3c[nH]c4ccc(C)cc34)cc2)c1N [Cpd005, ethyl 5-amino-1-(4-(2-(5-methyl-1H-indol-3-yl)ethylcarbamoyl)phenyl)-1H-pyrazole-4-carboxylate] | 297 |
| O=C(NCCc1c[nH]c2ccc(Cl)cc12)c1ccnc(N2CCOCC2)c1 [Cpd006, N-(2-(5-chloro-1H-indol-3-yl)ethyl)-2-morpholinoisonicotinamide] | 876 |
| O=C(NCCc1c[nH]c2ccc(F)cc12)c1ccnc(N2CCOCC2)c1 [Cpd007, N-(2-(5-fluoro-1H-indol-3-yl)ethyl)-2-morpholinoisonicotinamide] | 1080 |
| O=C(NCCc1c[nH]c2ccc(Cl)cc12)c1ccccc1-c1ccccc1 [Cpd008, N-(2-(5-chloro-1H-indol-3-yl)ethyl)biphenyl-2-carboxamide] | 249 |
| O=C(NCCc1c[nH]c2ccc(Cl)cc12)c1cccc(-c2ccccc2)c1 [Cpd010, N-(2-(5-chloro-1H-indol-3-yl)ethyl)biphenyl-3-carboxamide] | 187 |
| Cc1cccc(C)c1-c1ccc(C(=O)NCCc2c[nH]c3ccc(Cl)cc23)cc1 [Cpd011, N-(2-(5-chloro-1H-indol-3-yl)ethyl)-2′,6′-dimethylbiphenyl-4-carboxamide] | 236 |
| O=C(NCCc1c[nH]c2ccc(Cl)cc12)c1cccc(-c2ccc(O)cc2)c1 [Cpd013, N-(2-(5-chloro-1H-indol-3-yl)ethyl)-4′-hydroxybiphenyl-3-carboxamide] | 77 |
| O=C(NCCc1c[nH]c2ccc(Cl)cc12)c1ccc(-c2ccc(O)cc2)cc1 [Cpd014, N-(2-(5-chloro-1H-indol-3-yl)ethyl)-4′-hydroxybiphenyl-4-carboxamide] | 57 |
| Cc1ccccc1-c1ccccc1C(=O)NCCc1c[nH]c2ccc(Cl)cc12 [Cpd015, N-(2-(5-chloro-1H-indol-3-yl)ethyl)-2′-methylbiphenyl-2-carboxamide] | 381 |
| Cc1cccc(-c2cccc(C(=O)NCCc3c[nH]c4ccc(Cl)cc34)c2)c1 [Cpd019, N-(2-(5-chloro-1H-indol-3-yl)ethyl)-3′-methylbiphenyl-3-carboxamide] | 709 |
| Cc1ccc(-c2ccccc2C(=O)NCCc2c[nH]c3ccc(Cl)cc23)cc1 [Cpd021, N-(2-(5-chloro-1H-indol-3-yl)ethyl)-4′-methylbiphenyl-2-carboxamide] | 237 |
| Cc1ccc(-c2cccc(C(=O)NCCc3c[nH]c4ccc(Cl)cc34)c2)cc1 [Cpd022, N-(2-(5-chloro-1H-indol-3-yl)ethyl)-4′-methylbiphenyl-3-carboxamide] | 354 |
| Cc1ccc(-c2ccc(C(=O)NCCc3c[nH]c4ccc(Cl)cc34)cc2)cc1 [Cpd023, N-(2-(5-chloro-1H-indol-3-yl)ethyl)-4′-methylbiphenyl-4-carboxamide] | 235 |
| O=C(NCCc1c[nH]c2ccc(Cl)cc12)c1ccc(N2CCOCC2)nc1 [Cpd024, N-(2-(5-chloro-1H-indol-3-yl)ethyl)-6-morpholinonicotinamide] | 765 |
| O=C(NCCc1c[nH]c2ccc(Cl)cc12)c1ccccc1-n1cccn1 [Cpd025, N-(2-(5-chloro-1H-indol-3-yl)ethyl)-2-(1H-pyrazol-1-yl)benzamide] | 760 |
| COc1cccc(-c2ccccc2C(=O)NCCc2c[nH]c3ccc(Cl)cc23)c1 [Cpd029, N-(2-(5-chloro-1H-indol-3-yl)ethyl)-3′-methoxybiphenyl-2-carboxamide] | 523 |
| COc1ccc(-c2ccccc2C(=O)NCCc2c[nH]c3ccc(Cl)cc23)cc1 [Cpd032, N-(2-(5-chloro-1H-indol-3-yl)ethyl)-4′-methoxybiphenyl-2-carboxamide] | 200 |
| COc1ccc(-c2cccc(C(=O)NCCc3c[nH]c4ccc(Cl)cc34)c2)cc1 [Cpd033, N-(2-(5-chloro-1H-indol-3-yl)ethyl)-4′-methoxybiphenyl-3-carboxamide] | 223 |

| Compound | EC50 [nM] |
| --- | --- |
| COc1ccc(-c2ccc(C(=O)NCCc3c[nH]c4ccc(Cl)cc34)cc2)cc1 [Cpd034, N-(2-(5-chloro-1H-indol-3-yl)ethyl)-4′-methoxybiphenyl-4-carboxamide] | 91 |
| O=C(NCCc1c[nH]c2ccc(Cl)cc12)c1ccccc1-c1ccccc1F [Cpd035, N-(2-(5-chloro-1H-indol-3-yl)ethyl)-2′-fluorobiphenyl-2-carboxamide] | 165 |
| O=C(NCCc1c[nH]c2ccc(Cl)cc12)c1cccc(-c2ccccc2F)c1 [Cpd036, N-(2-(5-chloro-1H-indol-3-yl)ethyl)-2′-fluorobiphenyl-3-carboxamide] | 139 |
| O=C(NCCc1c[nH]c2ccc(Cl)cc12)c1ccc(-c2ccccc2F)cc1 [Cpd037, N-(2-(5-chloro-1H-indol-3-yl)ethyl)-2′-fluorobiphenyl-4-carboxamide] | 61 |
| O=C(NCCc1c[nH]c2ccc(Cl)cc12)c1ccccc1-c1cccc(F)c1 [Cpd038, N-(2-(5-chloro-1H-indol-3-yl)ethyl)-3′-fluorobiphenyl-2-carboxamide] | 226 |
| O=C(NCCc1c[nH]c2ccc(Cl)cc12)c1ccc(-c2cccc(F)c2)cc1 [Cpd039, N-(2-(5-chloro-1H-indol-3-yl)ethyl)-3′-fluorobiphenyl-4-carboxamide] | 139 |
| O=C(NCCc1c[nH]c2ccc(Cl)cc12)c1ccccc1-c1ccc(F)cc1 [Cpd040, N-(2-(5-chloro-1H-indol-3-yl)ethyl)-4′-fluorobiphenyl-2-carboxamide] | 208 |
| O=C(NCCc1c[nH]c2ccc(Cl)cc12)c1cccc(-c2ccc(F)cc2)c1 [Cpd041, N-(2-(5-chloro-1H-indol-3-yl)ethyl)-4′-fluorobiphenyl-3-carboxamide] | 186 |
| O=C(NCCc1c[nH]c2ccc(Cl)cc12)c1ccc(-c2ccc(F)cc2)cc1 [Cpd042, N-(2-(5-chloro-1H-indol-3-yl)ethyl)-4′-fluorobiphenyl-4-carboxamide] | 228 |
| N#Cc1ccccc1-c1cccc(C(=O)NCCc2c[nH]c3ccc(Cl)cc23)c1 [Cpd043, N-(2-(5-chloro-1H-indol-3-yl)ethyl)-2′-cyanobiphenyl-3-carboxamide] | 169 |
| N#Cc1ccccc1-c1ccc(C(=O)NCCc2c[nH]c3ccc(Cl)cc23)cc1 [Cpd044, N-(2-(5-chloro-1H-indol-3-yl)ethyl)-2′-cyanobiphenyl-4-carboxamide] | 75 |
| O=C(NCCc1c[nH]c2ccc(Cl)cc12)c1cccc(-c2ccncc2)c1 [Cpd045, N-(2-(5-chloro-1H-indol-3-yl)ethyl)-3-(pyridin-4-yl)benzamide] | 327 |
| O=C(NCCc1c[nH]c2ccc(Cl)cc12)c1ccc(-c2ccncc2)cc1 [Cpd046, N-(2-(5-chloro-1H-indol-3-yl)ethyl)-4-(pyridin-4-yl)benzamide] | 269 |
| O=C(NCCc1c[nH]c2ccc(Cl)cc12)c1cccc(-c2cccc(F)c2)c1 [Cpd047, N-(2-(5-chloro-1H-indol-3-yl)ethyl)-3′-fluorobiphenyl-3-carboxamide] | 408 |
| N#Cc1cccc(-c2ccccc2C(=O)NCCc2c[nH]c3ccc(Cl)cc23)c1 [Cpd048, N-(2-(5-chloro-1H-indol-3-yl)ethyl)-3′-cyanobiphenyl-2-carboxamide] | 232 |
| N#Cc1cccc(-c2cccc(C(=O)NCCc3c[nH]c4ccc(Cl)cc34)c2)c1 [Cpd049, N-(2-(5-chloro-1H-indol-3-yl)ethyl)-3′-cyanobiphenyl-3-carboxamide] | 61 |
| N#Cc1cccc(-c2ccc(C(=O)NCCc3c[nH]c4ccc(Cl)cc34)cc2)c1 [Cpd050, N-(2-(5-chloro-1H-indol-3-yl)ethyl)-3′-cyanobiphenyl-4-carboxamide] | 24 |
| N#Cc1ccc(-c2ccccc2C(=O)NCCc2c[nH]c3ccc(Cl)cc23)cc1 [Cpd051, N-(2-(5-chloro-1H-indol-3-yl)ethyl)-4′-cyanobiphenyl-2-carboxamide] | 325 |
| N#Cc1ccc(-c2cccc(C(=O)NCCc3c[nH]c4ccc(Cl)cc34)c2)cc1 [Cpd052, N-(2-(5-chloro-1H-indol-3-yl)ethyl)-4′-cyanobiphenyl-3-carboxamide] | 112 |
| N#Cc1ccc(-c2ccc(C(=O)NCCc3c[nH]c4ccc(Cl)cc34)cc2)cc1 [Cpd053, N-(2-(5-chloro-1H-indol-3-yl)ethyl)-4′-cyanobiphenyl-4-carboxamide] | 85 |
